Results as given in US12246004B2, “Therapeutic treatment of microsatellite unstable cancers” (THE BROAD INSTITUTE, INC., priority 2018, dated 2025).

Tests used:
KM12 cells = experiment: Luciferase competitive growth assay, rescue by ectopic WRN cDNA; assay type: cell-based
Procedure: The catalytically active version, exonuclease-dead (E84A), helicase-dead (K577M) and dually exonuclease and helicase-dead (E84A/K577M) versions of WRN cDNA were a gift from R. J. Monnat (Addgene, plasmids 46038, 46036, 46035 and 46037, respectively). […] The WRN sequence was cloned into a modified lentiviral expression vector, pLX_TRC209, under an EF1A promoter and modified to contain a neomycin-selectable marker. Sanger sequencing of the vectors and genomic DNA after integration were performed to confirm sequence identity. Lentivirus was produced as described below and transduced into dually Cas9-Firefly-luciferase-expressing KM12 cells to create stable ectopic WRN cDNA-expressing cell lines.
Dual Cas9-Firefly-luciferase- and Renilla-luciferase-expressing cells were generated by transduction of Firefly-luciferase cDNA and Renilla-luciferase cDNA, respectively, in a pLX_TRC313 lentiviral expression vector containing a hygromycin-resistance gene. After hygromycin selection, these two versions of the cell line were co-seeded in a 96 well plate at the following densities per well for each version: ES2 2×10^3 cells per well, OVK18, 3×10^3 cells per well; SW620, 4×10^3 cells per well; KM12, 4×10^3 cells per well. The following day, cells were transduced with lentivirus expressing the indicated sgRNA and a puromycin-resistance gene in six replicates. The day following viral transduction, the medium was changed to include puromycin. Cells were split and assayed with the Dual-Glo Luciferase Assay System (Promega) per the manufacturer's recommendations every 3-4 days. Luminescence was determined using the Perkin Elmer EnVision 2105. Values are presented as the ratio of Firefly to Renilla-luciferase luminescence signal per condition and normalized to the mean of the corresponding negative control sgRNAs for each cell line. Experiments in FIG. 2C and FIG. 7B were performed three times. Two-tailed Student's t-tests were performed when comparing single sgRNAs (FIG. 2C). Two-way ANOVAs were performed when multiple WRN sgRNAs were compared to negative controls (FIG. 7B).

WRN = experiment: Immunoblot of WRN levels after sgRNA transduction; assay type: cell-based; conditions: KM12 cells expressing WRN cDNA (FIG. 2B)
Procedure: For immunoblotting, cells were lysed in RIPA buffer (Sigma-Aldrich) supplemented with complete Protease Inhibitor Cocktail (Roche, 11697498001) and a Halt Phosphatase Inhibitor Cocktail (Thermo Fischer Scientific, 78428). For etoposide and hydroxyurea treatment (FIG. 4A), cells were treated with 10 μM etoposide and 1 mM hydroxyurea, respectively, 6 h before collection. Lysates were fractionated in 4-12% Bis-Tris gels (Invitrogen), which was then transferred to PVDF membranes (Immobilon-FL PVDF Millipore, IPFL00010) and blocked for an hour with Odyssey Blocking Buffer (PBS) (LI-COR Biosciences, 927-40000). Types of primary antibodies and the dilutions used for immunoblotting were as follows: anti-phospho-CHK2 (T68) (R&D Systems, AF1626, 1:400); anti-total CHK2 (Cell Signaling Technology, 3440, 1:1,000); anti-[…] (Cell Signaling Technology, 9718, 1:1,000); anti-GAPDH (Cell Signaling Technology, 5174, 1:1,000); anti-MLH1 (Cell Signaling Technology, 3515, 1:1,000); anti-MSH3 (BD Biosciences, 611390, 1:400); anti-WRN (Novus Biologicals, nb100-472, 1:1,000). The following secondary antibodies were used: goat anti-rabbit IRDye 800CW (LI-COR, 926-32211, 1:5,000), goat anti-rabbit IRDye 680LT (LI-COR, 926-68021), and goat anti-mouse IRDye 800CW (LI-COR, 926-32210). […]

KM12 xenografts = experiment: KM12 xenograft growth with doxycycline-inducible shRNA; assay type: in vivo, mice; conditions: doxycycline induction of shRNA (FIG. 2D)
Procedure: Studies were approved by the Institutional Animal Care and Use Committee (IACUC) of the Broad Institute under animal protocol 0194-01-18. IACUC guidelines on the ethical use and care of animals were followed. For growth curves, 10^6 KM12 cells expressing WRN shRNA 1 or WRN-C911 shRNA 1 were inoculated subcutaneously into right hind flank of approximately 8-week-old female SCID Hairless Outbred (SHO) mice obtained from Charles River Laboratories. Tumors were measured twice weekly with calipers and the tumor volumes were calculated using the formula π/6×(width^2×length). When primary tumors reached around 100 mm^3, the mice were randomized onto Control Teklad Global 18% Protein Rodent Diet or Teklad Global 18% Protein Rodent Diet containing 625 mg kg^−1 doxycycline hyclate. Mice remained on their respective diets throughout the remainder of the study. Animal body weights were recorded twice weekly during the course of the study for body condition scoring. For the growth curves, n=5 (4 from days 15-18), 5, 4, 4 for WRN shRNA 1 without doxycycline, WRN shRNA 1 with doxycycline, WRN-C911 shRNA 1 without doxycycline, WRN-C911 shRNA 1 with doxycycline treatment, respectively. One mouse treated with KM12 cells with WRN shRNA 1 without doxycycline was euthanized before day 15 because of tumor ulceration. No experiments exceeded the maximal tumor volumes of 2,000 mm^3 set forth by the IACUC. […]

MSS cells = experiment: Telomere PNA-FISH of metaphase spreads; assay type: cell-based; conditions: two MSS cell lines; 96 h after induction of shRNA
Procedure: (§1) In brief, 3×10^6 cells were plated in 10-cm dishes in the absence of doxycycline. For cells treated with doxycycline, 0.2 μg ml^−1 of doxycycline was added and refreshed every 48 h. Then, 96 h after adding doxycycline, cells were treated with 10 μg ml^−1 of colcemid for 3 h and then detached with trypsin. Half of the cell pellet was saved for immunoblot analysis. The other half of the cell pellet was treated with a hypotonic solution (60 mM KCl) and fixed with a 3:1 ratio of methanol:acidic acid. Metaphases were spread onto a slide and fixed with 3% formalin. The PNA-FISH probe ((CCCTAA)3 PNA probe (PNA Bio)) was applied to the slides and denatured at 85° C. for 3 min. The slides were washed with washing solution I (70% formamide, 0.1% Tween-20, 0.1% BSA in 10 mM Tris buffer, pH 7.5) twice and three times with washing solution II (150 mM NaCl, 0.1% Tween-20, 0.1% BSA in 50 mM Tris buffer, pH 7.5). Cy5-ATTCGTTGGAAACGGGA (SEQ ID NO: 28) was used to label centromeres. Images were captured with a Nikon Eclipse 80i microscope and processed with the NISElements BR software. In total, 30 to 60 metaphases were analyzed for cells of the indicated conditions. Two-tailed Student's 1-tests were performed (FIG. 4E). These experiments were performed twice.

MSI cells = experiment: Telomere PNA-FISH of metaphase spreads; assay type: cell-based; conditions: two MSI cell lines; 96 h after induction of shRNA
Procedure: as §1

Row | Substance | Rescue of viability by WRN cDNA (KM12 cells; Cas9-expressing KM12 cells, 9 days after sgRNA transduction (FIG. 2C)) | Rescue of viability by exonuclease-dead (E84A) WRN cDNA (KM12 cells; KM12 cells (FIGS. 2B and 2C)) | Rescue of viability by helicase-dead (K577M) WRN cDNA (KM12 cells; KM12 cells (FIGS. 2B and 2C)) | Silencing of endogenous versus exogenous WRN (immunoblot) (WRN) | Tumor growth (KM12 xenografts) | Chromosomal integrity (DSBs, fragmentation) in metaphase spreads (MSS cells) | Chromosomal integrity (DSBs, fragmentation) in metaphase spreads (MSI cells)
1 | WRN EIJ sgRNA: sgRNA targeting a WRN exon-intron junction, target sequence AGCACGTACATAAGCATCAG (SEQ ID NO: 4) (only the sgRNA target sequence is given, scaffold and chemistry not given here, further chemistry not given here) | rescued | did not attenuate rescue | prevented rescue | silencing endogenous WRN, but not exogenous WRN cDNA | – | – | –
2 | WRN shRNA 1: shRNA targeting WRN chosen from project DRIVE, CAGCACTGCCAATGGTTCCAA; SEQ ID NO: 5 | – | – | – | – | significantly impaired tumor growth | but not in MSS cells | induced DSBs and fragmentation throughout chromosomes
